What was measured:
Assay type in all cases: in vivo
[1] = tested on: Bemisia tabaci ESP-00; assay: Leaf-dip bioassay, adult whiteflies, multi-resistant strain ESP-00; conditions: adults; for ESP-00 LC50: multi-resistant strain ESP-00, mortality after 72 h
Text: (§1) Es wurden Versuche durchgeführt, um die überlegene Blattwirkung von Enaminocarbonylverbindungen gegen adulte Tiere eines Stamms von Bemisia tabaci zu zeigen, der bekanntermaßen resistent ist gegen Neonikotinoid-Insektizide sowie andere Insektizidklassen, einschließlich Insekten-Wachstumsregulatoren (wie Buprofezin) und Antifeedants (Substanzen, die einen Schaderreger vom Fraß abhalten) (wie Pymetrozin).
(§2) Baumwollblattscheiben (30 mm im Durchmesser) wurden für 5 sec in wässrige Lösungen technischer Insektizide, enthaltend 0,2 g/l Triton-X-100 als nicht-ionisches Benetzungsmittel, getaucht. Luftgetrocknete Blattscheiben wurden dann mit der adaxialen Seite nach unten auf ein Agarbett (12 g/l) in einer kleinen Petrischale (40 mm im Durchmesser) gelegt. Adulte Weiße Fliegen wurden mittels eines Vakuum-getriebenen Aspirators aus Aufzuchtkäfigen eingesammelt und 20 adulte Tiere wurden nach kurzer CO2-Narkose auf die Blattscheiben gelegt. Anschließend wurde jede Petrischale mit einem belüfteten Deckel verschlossen und umgedreht aufbewahrt. Nach 72 h wurde die Mortalität der Weißen Fliegen bestimmt. Jedes Insektizid wurde mindestens dreifach mit 2-oder 3-fach Bestimmungen pro Konzentration getestet.
(§3) LC50-Werte wurden aus Probit-Regressionen unter Verwendung des Computerprogramms POLO-PC 2 (LeOra Software, Berkeley, USA) berechnet.
(§4) Tabelle 1. Log-Dosis Probit Mortalitätsdaten für verschiedene Klassen von Insektiziden erhalten aus Blatt-Tauch-Bioassays gegen adulte Tiere zweier Bemisia tabaci Stämme, SUD-S und ESP-00, die bekanntermaßen Insektizid-empfindlich (SUD-S) bzw. multiresistent (ESP-00) sind (Stumpf und Nauen, 2003). Mortalität wurde nach 72 h bestimmt, mit Ausnahme von Buprofezin (10-12 d).

[2] = tested on: Bemisia tabaci SUD-S; assay: Leaf-dip bioassay, 2nd-instar nymphs, insecticide-susceptible strain SUD-S; conditions: nymphs in 2nd stage, mortality 10-12 d
Method: Larvale Tauch-Bioassays wurden mit geringfügigen Änderungen gemäß Elbert und Nauen (1996) durchgeführt. Die echten Blätter einer drei Wochen alten Baumwollpflanze wurden alle außer einem entfernt. Das verbleibende Blatt wurde auf eine Größe von ca. 15-20 cm^2 zurechtgeschnitten. Die Pflanzen wurden ohne Verwendung von Clip-Käfigen mit adulten Weißen Fliegen infiziert (ca. 20-30 adulte Tiere pro Blatt für 6-7 h). Die Weißen Fliegen wurden dann entfernt und zum geeigneten Zeitpunkt (gewöhnlich nach 10-12 d wenn die Nymphen im zweiten Stadium vorherrschten) wurden die infizierten Blätter für 5 sec in serielle wässrige Insektizidlösungen (s.o.) getaucht. […] Jedes Insektizid wurde mindestens dreifach mit 2- oder 3-fach Bestimmungen pro Konzentration getestet.
as §3, §4

[3] = tested on: Bemisia tabaci ESP-00; assay: Leaf-dip bioassay, 2nd-instar nymphs, multi-resistant strain ESP-00
Method: Larvale Tauch-Bioassays wurden mit geringfügigen Änderungen gemäß Elbert und Nauen (1996) durchgeführt. Die echten Blätter einer drei Wochen alten Baumwollpflanze wurden alle außer einem entfernt. Das verbleibende Blatt wurde auf eine Größe von ca. 15-20 cm^2 zurechtgeschnitten. Die Pflanzen wurden ohne Verwendung von Clip-Käfigen mit adulten Weißen Fliegen infiziert (ca. 20-30 adulte Tiere pro Blatt für 6-7 h). Die Weißen Fliegen wurden dann entfernt und zum geeigneten Zeitpunkt (gewöhnlich nach 10-12 d wenn die Nymphen im zweiten Stadium vorherrschten) wurden die infizierten Blätter für 5 sec in serielle wässrige Insektizidlösungen (s.o.) getaucht. Die prozentuale Mortalität wurde an Tag 21-23 bei ca. 24 °C gemessen, sobald alle Überlebenden die Puppenstadien durchschritten hatten. Jedes Insektizid wurde mindestens dreifach mit 2- oder 3-fach Bestimmungen pro Konzentration getestet.
as §3, §4

[4] = tested on: Bemisia tabaci SUD-S; assay: Leaf-dip bioassay, adult whiteflies, insecticide-susceptible strain SUD-S; conditions: adults, mortality after 72 h
Text: as §1, §2, §3, §4

| Compound | akute Kurzzeiteffekte gegen adulte Tiere von B. tabaci ([1]; strain not specified, result in words) | SUD-S LC50 [2] | Kreuzresistenz von Nymphen im zweiten Stadium des Stamms ESP-00 ([3]; 2nd-stage nymphs, result in words) | ESP-00 LC50 ([3]; nymphs in 2nd stage, multi-resistant strain ESP-00, mortality 10-12 d) | SUD-S LC50 [4] | ESP-00 LC50 [1] | Resistenz / Kreuz-resistenz von adulten B. tabaci Tieren des Stamms ESP-00 im Vergleich zu SUD-S ([1]; leaf-dip, result in words) |
| --- | --- | --- | --- | --- | --- | --- | --- |
| CC(C)N1C(=O)N(c2ccccc2)CS/C1=N\C(C)(C)C [Buprofezin] | keine akuten Kurzzeiteffekte | 0.27 ppm | starke Kreuzresistenz | 260 ppm | – | – | – |
| CN/C(=N/CC1CCOC1)N[N+](=O)[O-] (centres unmarked) [Dinotefuran] | – | – | – | – | 0.17 ppm | 9.8 ppm | – |
| CC1=NNC(=O)N(/N=C/c2cccnc2)C1 [Pymetrozin] | – | – | – | – | 0.49 ppm | 360 ppm | starke Resistenz |
| CN1COCN(Cc2cnc(Cl)s2)/C1=N\[N+](=O)[O-] [Thiamethoxam] | – | – | – | – | 1.1 ppm | 76 ppm | – |
